From article PMC3203990 (The FEBS journal, 2011) come the findings set out here.

The target of the assay is FtCCAP (Francisella tularensis class C acid phosphatase) (Francisella tularensis, UniProt Q5NH51). Kind of assay: biochemical.

SMILES strings stand for the structures.

FtCCAP (Francisella tularensis class C acid phosphatase), sequence (Q5NH51 22-247 limits assumed): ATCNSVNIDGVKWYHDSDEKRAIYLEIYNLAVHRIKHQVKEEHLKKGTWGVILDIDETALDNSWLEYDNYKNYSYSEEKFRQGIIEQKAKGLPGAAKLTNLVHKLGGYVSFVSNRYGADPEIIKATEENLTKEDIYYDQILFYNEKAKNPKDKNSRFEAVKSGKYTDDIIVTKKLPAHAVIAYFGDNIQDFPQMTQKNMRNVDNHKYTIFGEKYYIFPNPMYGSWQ

In turn, `Nc1ncnc2c1ncn2[C@@H]1O[C@H](COP(O)(O)=S)[C@@H](O)[C@H]1O` [AMPS] showed a Ki of 300 ± 30 nM.
